Assay results: patent US6403533B2, “Stabilized microbicide formulation” (Rohm and Haas Company, priority 2000, dated 2002)

Assay: Visual examination for brown precipitate formation upon storage of dilute aqueous CMI/MI solutions
Format: physicochemical
Conditions: storage at 55 °C, 30 ppm copper ion
Method: An advantage of the compositions of the present invention is that they are both physically and chemically stable as prepared and upon storage. […] By “physically stable” we mean that the compositions are fluid and show no visible brown precipitate formation after storage for at least 4 weeks at 55° C., and preferably for at least 8 weeks at 55° C. By “chemically stable” is meant that the 3-isothiazolone, particularly the CMI compound, retains at least 60%, preferably at least 70% and more preferably at least 80%, of its original concentration in the dilute solution composition after storage for at least 4 weeks at 55° C., and preferably for at least 8 weeks at 55° C.
Some embodiments of the invention are described in detail in the following Examples. All ratios, parts and percentages are expressed by weight unless otherwise specified, and all reagents used are of good commercial quality unless otherwise specified. The level of copper is reported in ppm as the level of cupric ion. Samples were considered stable when the samples were free of brown precipitate after being stored at least 4 weeks, and preferably at least 8 weeks, at 55° C. Abbreviations used in the Examples and Tables are listed below with the corresponding descriptions.
The samples tested were prepared by adding known amounts of 3-isothiazolone, copper sulfate pentahydrate, water-soluble organic solvent and DI water to a 100-ml glass jar equipped with a magnetic stir bar. The 3-isothiazolone used was an approximate 3:1 (weight/weight) mixture of CMI and MI (98% purity). Ingredients were combined in a manner to provide test solutions containing 1.5% of the 3-isothiazolone (1.53 g per 100 g total solution), 30 ppm copper ion (0.0118 g copper sulfate pentahydrate per 100 g total solution) and various concentrations of water-soluble organic solvent (0 g, 1 g, 5 g, 10 g, 25 g and 50 g per 100 g total solution, corresponding to 0%, 1%, 5%, 10%, 25% or 50% solvent, respectively); the remainder of the solution (to 100 g total) was made up with DI water. Each sample was stirred until all solids were dissolved; portions (approximately 10 g) were then transferred to 20-ml glass vials and stored at room temperature or in an oven at 55° C. The samples were visually examined at various time points to determine the formation of brown precipitate and analyzed by HPLC/UV detection to determine the amount of CMI remaining; in all cases the amount of remaining MI was unchanged (100% of original value).

Which “stabilizing effect of the solvent regarding prevention of brown precipitate formation (in words)” value (“stabilizing effect” for short) does the source give for CCO [ethanol, Ethanol] here?
The value was “effective stabilizing solvents at use levels above 1%”.

Which “stabilizing effect” value does the source give for OCCCCCO [1,5-pentanediol, 1,5-Pentandiol (Pentamethylene Glycol)] here?
Its value is “effective stabilizing solvents at use levels above 1%”.

For CCOC(C)=O [ethyl acetate, Ethyl Acetate], which “stabilizing effect” value is on record?
The value was “effective stabilizing solvents at use levels above 1%”.

For CC(O)CO (stereo not shown) [PG, Propylene Glycol (1,2-Propanediol)], which “stabilizing effect” value is on record?
The value was “effective stabilizing solvent above levels of 1%”.
